Test results from PMC8470483, “Bidirectional Influences of Cranberry on the Pharmacokinetics and Pharmacodynamics of Warfarin with Mechanism Elucidation” (Nutrients, 2021).
Read-outs that look alike come from different tables or passages of the source. Marks after values point to notes of the source that are not given here.

How the values were obtained:
[1] = Measurement of INR in rats (anticoagulation effect of warfarin); assay type: in vivo; conditions: for INR value at 24 h: mean ± S.E.
Method: In the pharmacodynamic study, the rats were randomly divided into four groups (n = 8 in each group). In the first experiment, two groups of rats were orally administered (±) warfarin (0.2 mg/kg) alone and with CJ (5 g/kg) given at 0.5 h prior to (±) warfarin dosing, and blood samples were drawn at 6, 10 and 24 h after (±) warfarin dosing. In the second experiment, two groups of rats were orally administered (±) warfarin (0.2 mg/kg) with and without CJ (5 g/kg), given at 10 h after (±) warfarin dosing, and blood samples were drawn at 10, 24, and 48 h after (±) warfarin dosing.
Ten µL of blood was collected and the INR was measured using CoaguChek® XS System (Roche Diagnostics GmbH, Mannheim, Germany). All procedures followed the manufacturer’s protocol.

[2] = rats; for Change of AUC0–10 vs warfarin alone / Change of AUC0–t vs warfarin alone / Change of Cmax vs warfarin alone: CJ 5.0 g/kg 0.5 h before warfarin; for Effect of CJ on AUC0–t / Effect of CJ on Cmax: CJ given at 10 h after (±) warfarin; for Decrease of AUC0-t / Decrease of AUC0–10 / Decrease of Cmax: CJ ingestion at 0.5 h before (±) warfarin, vs warfarin alone; for AUC0–10 / AUC0–t / AUC48–96 / Cmax: mean ± S.E.
Method: In the pharmacokinetic interaction study, the rats were randomly divided into three groups (n = 7 in each group). The first group of rats was orally administered (±) warfarin (0.2 mg/kg) alone. The second and third groups of rats were administered CJ (5 g/kg) at 0.5 h prior to (±) warfarin and at 10 h after (±) warfarin dosing, respectively. The study was performed in a parallel design. Blood samples were drawn at 0.5, 1.0, 2.0, 6.0, 10, 24, 48, 72, and 96 h after (±) warfarin dosing and collected in a Vacutainer K2 EDTA tube (BD, New Jersey, USA). The blood samples were centrifuged to obtain plasma.
Briefly, 100 µL of plasma was mixed with 50 µL of 0.5N formic acid and then partitioned with 150 µL of ethyl acetate containing 10 µg/mL of caffeic acid as an internal standard.
The pharmacokinetic parameters were calculated by Phoenix WinNonlin® version 8.1 (Pharsight Corporation, St. Louis, MO, USA). The unpaired Student’s t-test and one-way ANOVA were used for statistical comparisons, taking p < 0.05 as significant.

CYP2C9 = CYP2C9 (Homo sapiens, UniProt P11712); test: Vivid CYP450 screening kit, CYP2C9 activity; conditions: positive control, 10 μM, in blank serum
Method: Vivid® CYP450 screening kits were used to evaluate the effects of CMs on the activities of CYP1A2, CYP2C9, and CYP3A4, individually [26, 27], and all the procedures were performed based on the standard protocols.

[3] = oral (±) warfarin 0.2 mg/kg + CJ 5.0 g/kg 0.5 h before warfarin
[4] = oral (±) warfarin 0.2 mg/kg + CJ 5.0 g/kg 10 h after warfarin
[5] = oral (±) warfarin 0.2 mg/kg alone

Chain of CYP2C9 (P11712 whole entry): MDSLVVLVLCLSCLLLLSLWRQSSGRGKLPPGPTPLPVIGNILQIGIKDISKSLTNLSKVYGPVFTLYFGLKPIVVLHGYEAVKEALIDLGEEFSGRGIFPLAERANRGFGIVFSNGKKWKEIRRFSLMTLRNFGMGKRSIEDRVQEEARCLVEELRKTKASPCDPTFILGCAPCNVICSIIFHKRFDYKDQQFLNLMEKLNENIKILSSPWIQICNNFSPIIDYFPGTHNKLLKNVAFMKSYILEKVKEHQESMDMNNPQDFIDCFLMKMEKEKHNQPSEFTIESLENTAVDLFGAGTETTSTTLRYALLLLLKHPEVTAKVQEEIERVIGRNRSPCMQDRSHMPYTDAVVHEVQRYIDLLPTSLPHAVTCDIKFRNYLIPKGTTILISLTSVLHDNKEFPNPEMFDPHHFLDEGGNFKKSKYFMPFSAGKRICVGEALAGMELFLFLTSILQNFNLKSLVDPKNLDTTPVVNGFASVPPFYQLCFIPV

SMILES	Change of AUC0–10 vs warfarin alone [2]	Change of AUC0–t vs warfarin alone [2]	Change of Cmax vs warfarin alone [2]	Effect of CJ on AUC0–t [2]	Effect of CJ on Cmax [2]	Decrease of AUC0-t [2] [%]	Decrease of AUC0–10 [2] [%]	Decrease of Cmax [2] [%]	AUC0–10 [2, 3]	AUC0–t [2, 3]	AUC48–96 [2, 3]	Cmax [2, 3]	AUC0–10 [2, 4]	AUC0–t [2, 4]	Cmax [2, 4]	AUC0–10 [2, 5]	AUC0–t [2, 5]	AUC48–96 [2, 5]	Cmax [2, 5]	also measured
CC(=O)CC(c1ccccc1)c1c(O)c2ccccc2oc1=O (racemic) [(±) warfarin, (±) Warfarin sodium]	–	–	–	–	–	–	–	–	–	–	–	–	–	–	–	–	–	–	–	INR value at 24 h ([1]; control rats, oral (±) warfarin 0.2 mg/kg alone): 1.4 ± 0.1; INR value at 24 h compared with control rats ([1]; rats, CJ given 0.5 h prior to warfarin): not different from the control rats; Increase of INR value at 24 h vs control rats ([1]; rats, CJ given 10 h after warfarin): 93%; INR value at 24 h ([1]; rats, oral (±) warfarin 0.2 mg/kg + CJ 5 g/kg given 0.5 h prior to warfarin): 1.6 ± 0.1; INR value at 24 h ([1]; rats, oral (±) warfarin 0.2 mg/kg + CJ 5 g/kg given 10 h later): 2.7 ± 0.5
CC(=O)C[C@H](c1ccccc1)c1c(O)c2ccccc2oc1=O [R-warfarin]	(−54%)	(−52%)	(−51%)	not affected	not affected	52	54	51	1310.8 ± 169.6 ^b h⋅ng/mL	3007.6 ± 230.0 ^b h⋅ng/mL	90.4 ± 58.2 h⋅ng/mL	168.6 ± 17.2 ^b ng/mL	2943.7 ± 185.7 ^a h⋅ng/mL	4739.3 ± 255.0 ^ab h⋅ng/mL	402.8 ± 33.6 ^a ng/mL	2848.9 ± 395.0 ^a h⋅ng/mL	6209.2 ± 1253.4 ^a h⋅ng/mL	222.0 ± 125.3 h⋅ng/mL	341.1 ± 56.6 ^a ng/mL	–
CC(=O)C[C@@H](c1ccccc1)c1c(O)c2ccccc2oc1=O [S-warfarin]	(−52%)	(−34%)	(−48%)	not affected	not affected	34	52	48	1561.8 ± 217.3 ^b h⋅ng/mL	6286.7 ± 456.3 ^b h⋅ng/mL	1041.3 ± 296.5 ^a h⋅ng/mL	216.3 ± 18.1 ^b ng/mL	3846.6 ± 260.8 ^a h⋅ng/mL	11,555.0 ± 613.6 ^a h⋅ng/mL	542.0 ± 59.4 ^a ng/mL	3267.7 ± 423.2 ^a h⋅ng/mL	9459.1 ± 1659.6 ^a h⋅ng/mL	1126.6 ± 434.5 ^a h⋅ng/mL	418.2 ± 69.4 ^a ng/mL	AUC48–96 [2, 4]: 2547.9 ± 339.5 ^b h⋅ng/mL
Nc1ccc(S(=O)(=O)Nc2ccnn2-c2ccccc2)cc1 [SFZ, sulfaphenazole]	–	–	–	–	–	–	–	–	–	–	–	–	–	–	–	–	–	–	–	Decrease of CYP2C9 activity (CYP2C9): 19%
